Like-named read-outs stand apart in the source and are kept apart here.
Biological target: T1, HIV-1 protease (Human immunodeficiency virus type 1 group M subtype B, UniProt P04585)
T1 construct: The protease (or proteinase), consisting of only 99 amino acids, is among the smallest enzymes known
Assay: In vitro HIV protease inhibitory assay (HIV Protease FITC Assay)
Assay type: biochemical
Details: for Ki: read-out: HIV-1 FITC Ki
Procedure, shortened: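 Percent inhibition was read as fluorescence after avidin-bead capture and filtration separated FITC cleavage product from biotinylated substrate. Enzyme and substrate reacted 1 h, RT, dark, at pH 5.5 (0.1 M sodium acetate, 1.0 M NaCl, 0.05% NP-40).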

[1] = HIV-1 Dose 0.123 uM, read-out: HIV-1 Protease % Inhib
[2] = HIV-1 Dose 0.370 uM, read-out: HIV-1 Protease % Inhib
[3] = HIV-1 Dose 1.100 uM, read-out: HIV-1 Protease % Inhib
[4] = HIV-1 Dose 3.300 uM, read-out: HIV-1 Protease % Inhib
[5] = HIV-1 Dose 10.000 uM, read-out: HIV-1 Protease % Inhib
[6] = HIV-1 Dose 30.000 uM, read-out: HIV-1 Protease % Inhib
[7] = read-out: HIV-1 Protease % Inhib

| Structure (SMILES) | inhibition at 0.123 µM [1] | inhibition at 0.37 µM [2] | inhibition at 1.1 µM [3] | inhibition at 3.3 µM [4] | inhibition at 10 µM [5] | inhibition at 30 µM [6] | inhibition at 100 µM (HIV-1 Dose 100.000 uM, read-out: HIV-1 Protease % Inhib) | inhibition at 0.123 µM [7] | inhibition at 0.37 µM [7] | inhibition at 1.1 µM [7] | inhibition at 3.3 µM [7] | inhibition at 10 µM [7] | inhibition at 30 µM [7] | Ki |
| --- | --- | --- | --- | --- | --- | --- | --- | --- | --- | --- | --- | --- | --- | --- |
| O=c1oc(CCCC(F)(F)F)cc(O)c1C(c1ccccc1)C1CC1 (stereo not shown) [Example 118, 3-(Cyclopropyl-phenyl-methyl)-4-hydroxy-6-(4,4,4-trifluoro-butyl)-pyran-2-one] | < 10% | < 10% | 20% | 52.4% | 83.9% | 102% | – | – | – | – | – | – | – | – |
| O=c1oc(CCc2nnnn2C2CCCCC2)cc(O)c1C(c1ccccc1)C1CC1 (stereo not shown) [Example 119, 6-[2-(1-Cyclohexyl-1H-tetrazol-5-yl)-ethyl]-3-(cyclopropyl-phenyl-methyl)-4-hydroxy-2-one] | < 10% | < 10% | < 10% | < 10% | 20.7% | 60.3% | – | – | – | – | – | – | – | – |
| CCC(C1=C(O)CC(Cc2ccccc2)(Cc2ccccc2)OC1=O)c1ccccc1 (stereo not shown) [Example 120, 6,6-Dibenzyl-4-hydroxy-3-(1-phenyl-propyl)-5,6-dihydro-pyran-2-one] | < 10% | < 10% | 10.1% | 26.2% | 46.4% | 60.1% | – | – | – | – | – | – | – | – |
| C=CC(C1=C(O)CC2(CCOCC2)OC1=O)c1ccccc1 (stereo not shown) [Example 121, 4-Hydroxy-3-(1-phenyl-allyl)-1,9-dioxa-spiro[5.5]undec-3-en-2-one] | < 10% | < 10% | < 10% | 10.8% | 40.2% | 68.5% | – | – | – | – | – | – | – | – |
| Cc1cc(O)c(CC=Cc2ccccc2)c(=O)o1 [Example 122, 4-Hydroxy-6-methyl-3-(3-phenyl-prop-2-enyl)-2H-Pyran-2-one] | – | – | – | – | – | – | 26% | – | – | – | – | – | – | – |
| CCC(C1=C(O)CC2(CCC(=O)CC2)OC1=NO)c1ccccc1 (stereo not shown) [Example 123, 4-Hydroxy-3-(1-phenyl-propyl)-1-oxa-spiro[5.5]undec-3-ene-2,9-dione monooxime] | < 10% | < 10% | < 10% | 14.8% | 39.6% | 72% | – | – | – | – | – | – | – | – |
| CCC(Cc1ccccc1)c1cc(O)c(C2(c3ccccc3)CCC2)c(=O)o1 (stereo not shown) [Example 124, 4-Hydroxy-3-(1-phenylcyclobutyl)-6-[1-(phenylmethyl)propyl]-2H-pyran-2-one] | < 10% | < 10% | < 10% | 27.5% | 53.4% | 64.8% | – | – | – | – | – | – | – | – |
| C=CC(C1=C(O)CC2(CCCCCCC2)OC1=O)c1ccccc1 (stereo not shown) [Example 125, 4-Hydroxy-3-(1-phenyl-2-propenyl)-1-oxaspiro[5.7]tridec-3-en-2-one] | < 10% | < 10% | 15.4% | 45.7% | 71% | 89.7% | – | – | – | – | – | – | – | – |
| CCC(C1=C(O)CC2(CCCCCCC2)OC1=O)c1ccccc1 (stereo not shown) [Example 126, 4-Hydroxy-3-(1-phenylpropyl)-1-oxaspiro[5.7]tridec-3-en-2-one] | – | – | – | – | – | – | – | < 10% | < 10% | 13.2% | 42.9% | 66.8% | 81% | – |
| C=CC(C1=C(O)CC2(CCCCCC2)OC1=O)c1ccccc1 (stereo not shown) [Example 127, 4-Hydroxy-3-(1-phenylallyl)-1-oxa-spiro[5.6]-dodec-3-en-2-one] | < 10% | 14.4% | 38.4% | 65.6% | 98.9% | 102% | – | – | – | – | – | – | – | – |
| C=CC(C1=C(O)CC2(CCCC2)OC1=O)c1ccccc1 (stereo not shown) [Example 128, 4-Hydroxy-3-(1-phenylallyl)-1-oxa-spiro[5.4]-dec-3-en-2-one] | < 10% | < 10% | 18.5% | 46.8% | 79.8% | 95.7% | – | – | – | – | – | – | – | – |
| C=CC(C1=C(O)CC2(CCCCC2Cc2ccccc2)OC1=O)c1ccccc1 (stereo not shown) [Example 129, 7-Benzyl-4-hydroxy-3-(1-phenylallyl)-1-oxa-spire[5.5]undec-3-en-2-one] | – | – | – | – | – | – | – | < 10% | < 10% | 43.5% | 67.1% | 80.7% | 83.4% | – |
| CCC(C1=C(O)CC2(CCCC2)OC1=O)c1ccccc1 (stereo not shown) [Example 130, 4-Hydroxy-3-(1-phenylpropyl)-1-oxa-spiro[5.4]-dec-3-en-2-one] | < 10% | < 10% | < 10% | < 10% | < 10% | 13.1% | – | – | – | – | – | – | – | – |
| CCC(CCN1CCOCC1)c1cc(O)c(C(c2ccccc2)C2CC2)c(=O)o1 (stereo not shown) [Example 131, 3-(Cyclopropylphenylmethyl)-6-[1-ethyl-3-(4-morpholinyl)propyl]-4-hydroxy-2H-pyran-2-one] | < 10% | < 10% | < 10% | < 10% | 13.2% | 45.9% | – | – | – | – | – | – | – | – |
| CCC(CC(=O)OCc1ccccc1)c1cc(O)c(C(c2ccccc2)C2CC2)c(=O)o1 (stereo not drawn) [Example 132, 3-(Cyclopropylphenylmethyl)-β-ethyl-4-hydroxy-2-oxo-, phenylmethyl ester 2H-pyran-6-propanoic acid] | < 10% | < 10% | 29.1% | 70.2% | 87.6% | 110% | – | – | – | – | – | – | – | – |
| CC(C)C(Cc1ccccc1)c1cc(O)c(C(c2ccccc2)C2CC2)c(=O)o1 (stereo not shown) [Example 133, 3-(Cyclopropylphenylmethyl)4-hydroxy-6-[2-methyl-1-(phenylmethyl)propyl]-2H-pyran-2-one] | 20.6% | 49.6% | 74.3% | 95.9% | 110% | 102% | – | – | – | – | – | – | – | 40 nM |
| CC(C)C(CC1CCCOC1)c1cc(O)c(C(c2ccccc2)C2CC2)c(=O)o1 (stereo not shown) [Example 134, 3-(Cyclopropylphenylmethyl)-4-hydroxy-6-[2-methyl-1-[(tetrahydro-2H-pyran-3-yl)methyl]propyl]-2H-pyran-2-one] | 21.1% | 57.5% | 83.1% | 99.7% | 111% | 106% | – | – | – | – | – | – | – | 24 nM |
| CCC(CCC(F)(F)F)c1cc(O)c(C(c2ccccc2)C2CC2)c(=O)o1 (stereo not shown) [Example 136, 3-(Cyclopropylphenylmethyl)-6-(1-ethyl-4,4,4-trifluorobutyl)-4-hydroxy-2H-pyran-2-one] | < 10% | 24.5% | 62.4% | 91.3% | 99.1% | 99.7% | – | – | – | – | – | – | – | 52 nM |
| CCC(CC1CCCN(S(=O)(=O)c2ccc(C)cc2)C1)c1cc(O)c(C(c2ccccc2)C2CC2)c(=O)o1 (stereo not shown) [Example 137, 3-[2-[3-(Cyclopropylphenylmethyl)-4-hydroxy-2-oxo-2H-pyran-6-yl]butyl]-1-[(4-methylphenyl)sulfonyl]-piperidine] | < 10% | < 10% | 23% | 57.2% | 80.2% | 79.7% | – | – | – | – | – | – | – | – |

From patent EP1203770A1 (priority 1992, dated 1994)
